Earlier results in US20070282422A1, “Medical devices and methods for local delivery of elastin-stabilizing compounds” (Cook Incorporated, priority 2006, published 2007).

How the values were obtained:
[1] = system: elastin in ascending porcine aorta; conditions: tannic concentrations of about 0.3%
aortic elastin = conditions: lyophilized aortic elastin strips in buffered solutions of 0.3%-0.8% tannic acid

Substance: Tannic acid
- elastin stabilization [1]: elastin stabilization
- reduced the susceptibility of the elastin towards elastase (aortic elastin): about 50%
